Patent publication US10525088B2, “Lactic acid bacterial immunopotentiating activity-increasing composition and method for increasing immunopotentiating activity of lactic acid bacteria” (Kirin Holdings Kabushiki Kaisha, priority 2014, dated 2020)

Tested on: dendritic cells induced from myeloblasts
Test: Interferon-α production by dendritic cells induced from mouse myeloblasts (Flt-3L), cultured with JCM5805 and sample
Assay type: cell-based, mice
Details: 0.1 (w/v) % JCM5805 + 0.25 (w/v) % sample; myeloblast-derived dendritic cells; 24 hours
Experimental: Medium was inoculated with 1 ml of the obtained cell suspension and the culture was incubated at 37° C., 5% CO2 in a CO2 incubator for 1 week to induce dendritic cells. […] The samples were the lactic acid bacteria only, sucrose palmitate, and Ryoto Sugar Ester […] (mainly containing sucrose palmitate) (Mitsubishi-Kagaku Foods Corporation).

sucrose palmitate
change of interferon-α inducing activity of JCM5805 by the sample: increased
